# Like-named read-outs stand apart in the source and are kept apart here.
# Legend:
# AP-1060 (ETV6-NTRK3) = test: Cell viability assay; conditions: read-out: IC50 in cell proliferation assay
# [1] = molecular target: panel of 255 wild-type kinases (Homo sapiens, UniProt P42684); test: Kinase panel profiling at 1 µmol/L (MSA or IMAP), percentage inhibition; assay type: biochemical; conditions: ARG kinase assay; 1 µmol/L single concentration; read-out: %-inhibition ARG
# [2] = molecular target: panel of 255 wild-type kinases (Homo sapiens, UniProt O00311); test: as above; assay type: biochemical; conditions: CDC7/ASK kinase assay; 1 µmol/L single concentration; read-out: %-inhibition CDC7/ASK
# 134 cancer cell lines = test: Cell viability assay (ATPlite, 72 hours), IC50 on cancer cell line panel
structure (smiles),measurement,setting,value
CCn1c(=O)c(-c2cc(NC(=O)Nc3ccccc3)c(F)cc2Br)cc2cnc(NC)cc21 [ripretinib],IC50,AP-1060 (ETV6-NTRK3),2830 nM
same,inhibition at 1 µM,[1],56%
same,inhibition at 1 µM,[2],0.278%
same,IC50,"134 cancer cell lines; HEC-6, read-out: IC50 in cell proliferation assay",1860 nM
same,IC50,"134 cancer cell lines; Homo sapiens, 769-P, read-out: IC50 in cell proliferation assay",2580 nM
same,IC50,"134 cancer cell lines; Homo sapiens, 786-0, read-out: IC50 in cell proliferation assay",2140 nM
same,IC50,"134 cancer cell lines; Homo sapiens, A 172, read-out: IC50 in cell proliferation assay",4960 nM
same,IC50,"134 cancer cell lines; Homo sapiens, A204, read-out: IC50 in cell proliferation assay",520 nM
same,IC50,"134 cancer cell lines; Homo sapiens, A498, read-out: IC50 in cell proliferation assay",1140 nM
same,IC50,"134 cancer cell lines; Homo sapiens, A549, read-out: IC50 in cell proliferation assay",2680 nM
same,IC50,"134 cancer cell lines; Homo sapiens, A704, read-out: IC50 in cell proliferation assay",2220 nM
same,IC50,"134 cancer cell lines; Homo sapiens, A-375, read-out: IC50 in cell proliferation assay",2920 nM
same,IC50,"134 cancer cell lines; Homo sapiens, A-427, read-out: IC50 in cell proliferation assay",1520 nM
same,IC50,"134 cancer cell lines; Homo sapiens, ACHN, read-out: IC50 in cell proliferation assay",1470 nM
same,IC50,"134 cancer cell lines; Homo sapiens, AN3-CA, read-out: IC50 in cell proliferation assay",1010 nM
same,IC50,"134 cancer cell lines; Homo sapiens, ASPC1, read-out: IC50 in cell proliferation assay",7560 nM
same,IC50,"134 cancer cell lines; Homo sapiens, AU565, read-out: IC50 in cell proliferation assay",3760 nM
same,IC50,"134 cancer cell lines; Homo sapiens, BT-20, read-out: IC50 in cell proliferation assay",7430 nM
same,IC50,"134 cancer cell lines; Homo sapiens, BT-474, read-out: IC50 in cell proliferation assay",2230 nM
same,IC50,"134 cancer cell lines; Homo sapiens, BT-549, read-out: IC50 in cell proliferation assay",4510 nM
same,IC50,"134 cancer cell lines; Homo sapiens, BXPC-3, read-out: IC50 in cell proliferation assay",1510 nM
same,IC50,"134 cancer cell lines; Homo sapiens, C-33-A, read-out: IC50 in cell proliferation assay",4820 nM
same,IC50,"134 cancer cell lines; Homo sapiens, CAL-27, read-out: IC50 in cell proliferation assay",9800 nM
same,IC50,"134 cancer cell lines; Homo sapiens, CCF-STTG1, read-out: IC50 in cell proliferation assay",> 31600 nM
same,IC50,"134 cancer cell lines; Homo sapiens, CCRF-CEM, read-out: IC50 in cell proliferation assay",4980 nM
same,IC50,"134 cancer cell lines; Homo sapiens, COLO 205, read-out: IC50 in cell proliferation assay",1870 nM
same,IC50,"134 cancer cell lines; Homo sapiens, COLO-829, read-out: IC50 in cell proliferation assay",2490 nM
same,IC50,"134 cancer cell lines; Homo sapiens, DLD-1, read-out: IC50 in cell proliferation assay",1540 nM
same,IC50,"134 cancer cell lines; Homo sapiens, DU-145, read-out: IC50 in cell proliferation assay",1970 nM
same,IC50,"134 cancer cell lines; Homo sapiens, DU-4475, read-out: IC50 in cell proliferation assay",3380 nM
same,IC50,"134 cancer cell lines; Homo sapiens, Daoy, read-out: IC50 in cell proliferation assay",2060 nM
same,IC50,"134 cancer cell lines; Homo sapiens, DoTc2-4510, read-out: IC50 in cell proliferation assay",6210 nM
same,IC50,"134 cancer cell lines; Homo sapiens, EOL1, read-out: IC50 in cell proliferation assay",0.634 nM
same,IC50,"134 cancer cell lines; Homo sapiens, FaDu, read-out: IC50 in cell proliferation assay",3050 nM
same,IC50,"134 cancer cell lines; Homo sapiens, G-361, read-out: IC50 in cell proliferation assay",2520 nM
same,IC50,"134 cancer cell lines; Homo sapiens, HCC827, read-out: IC50 in cell proliferation assay",3830 nM
same,IC50,"134 cancer cell lines; Homo sapiens, HCC4006, read-out: IC50 in cell proliferation assay",> 31600 nM
same,IC50,"134 cancer cell lines; Homo sapiens, HCT-15, read-out: IC50 in cell proliferation assay",2560 nM
same,IC50,"134 cancer cell lines; Homo sapiens, HCT-116, read-out: IC50 in cell proliferation assay",3020 nM
same,IC50,"134 cancer cell lines; Homo sapiens, HEC-1, read-out: IC50 in cell proliferation assay",1360 nM
same,IC50,"134 cancer cell lines; Homo sapiens, HEC-1B, read-out: IC50 in cell proliferation assay",426 nM
same,IC50,"134 cancer cell lines; Homo sapiens, HL-60, read-out: IC50 in cell proliferation assay",1820 nM
same,IC50,"134 cancer cell lines; Homo sapiens, HT, read-out: IC50 in cell proliferation assay",> 31600 nM
same,IC50,"134 cancer cell lines; Homo sapiens, HT-1080, read-out: IC50 in cell proliferation assay",1700 nM
same,IC50,"134 cancer cell lines; Homo sapiens, Hs746T, read-out: IC50 in cell proliferation assay",3100 nM
same,IC50,"134 cancer cell lines; Homo sapiens, Hs-578T, read-out: IC50 in cell proliferation assay",3730 nM
same,IC50,"134 cancer cell lines; Homo sapiens, HuTu80, read-out: IC50 in cell proliferation assay",1580 nM
same,IC50,"134 cancer cell lines; Homo sapiens, J82, read-out: IC50 in cell proliferation assay",2300 nM
same,IC50,"134 cancer cell lines; Homo sapiens, Jurkat E6.1, read-out: IC50 in cell proliferation assay",2640 nM
same,IC50,"134 cancer cell lines; Homo sapiens, K562, read-out: IC50 in cell proliferation assay",1850 nM
same,IC50,"134 cancer cell lines; Homo sapiens, KATO III, read-out: IC50 in cell proliferation assay",676 nM
same,IC50,"134 cancer cell lines; Homo sapiens, KG-1, read-out: IC50 in cell proliferation assay",590 nM
same,IC50,"134 cancer cell lines; Homo sapiens, KLE, read-out: IC50 in cell proliferation assay",9980 nM
same,IC50,"134 cancer cell lines; Homo sapiens, KMS-11, read-out: IC50 in cell proliferation assay",4570 nM
same,IC50,"134 cancer cell lines; Homo sapiens, KU812, read-out: IC50 in cell proliferation assay",850 nM
same,IC50,"134 cancer cell lines; Homo sapiens, Kasumi 1, read-out: IC50 in cell proliferation assay",55 nM
same,IC50,"134 cancer cell lines; Homo sapiens, LC-2-ad, read-out: IC50 in cell proliferation assay",5380 nM
same,IC50,"134 cancer cell lines; Homo sapiens, LNCaP-Clone-FGC, read-out: IC50 in cell proliferation assay",4880 nM
same,IC50,"134 cancer cell lines; Homo sapiens, LS174T, read-out: IC50 in cell proliferation assay",9310 nM
same,IC50,"134 cancer cell lines; Homo sapiens, LS-411N, read-out: IC50 in cell proliferation assay",2720 nM
same,IC50,"134 cancer cell lines; Homo sapiens, LoVo, read-out: IC50 in cell proliferation assay",3040 nM
same,IC50,"134 cancer cell lines; Homo sapiens, MCF7, read-out: IC50 in cell proliferation assay",> 31600 nM
same,IC50,"134 cancer cell lines; Homo sapiens, MDA-MB-231, read-out: IC50 in cell proliferation assay",1260 nM
same,IC50,"134 cancer cell lines; Homo sapiens, MDA-MB-453, read-out: IC50 in cell proliferation assay",3530 nM
same,IC50,"134 cancer cell lines; Homo sapiens, MDA-MB-468, read-out: IC50 in cell proliferation assay",2470 nM
same,IC50,"134 cancer cell lines; Homo sapiens, MG-63, read-out: IC50 in cell proliferation assay",12300 nM
same,IC50,"134 cancer cell lines; Homo sapiens, MIA PaCa-2, read-out: IC50 in cell proliferation assay",24200 nM
same,IC50,"134 cancer cell lines; Homo sapiens, MKN-45, read-out: IC50 in cell proliferation assay",> 31600 nM
same,IC50,"134 cancer cell lines; Homo sapiens, MOLM-13, read-out: IC50 in cell proliferation assay",238 nM
same,IC50,"134 cancer cell lines; Homo sapiens, MOLT-4, read-out: IC50 in cell proliferation assay",3830 nM
same,IC50,"134 cancer cell lines; Homo sapiens, MV4-11, read-out: IC50 in cell proliferation assay",578 nM
same,IC50,"134 cancer cell lines; Homo sapiens, MeWo, read-out: IC50 in cell proliferation assay",3580 nM
same,IC50,"134 cancer cell lines; Homo sapiens, NCCIT, read-out: IC50 in cell proliferation assay",1720 nM
same,IC50,"134 cancer cell lines; Homo sapiens, NCI-H82, read-out: IC50 in cell proliferation assay",1110 nM
same,IC50,"134 cancer cell lines; Homo sapiens, NCI-H460, read-out: IC50 in cell proliferation assay",1620 nM
same,IC50,"134 cancer cell lines; Homo sapiens, NCI-H661, read-out: IC50 in cell proliferation assay",11800 nM
same,IC50,"134 cancer cell lines; Homo sapiens, NCI-H716, read-out: IC50 in cell proliferation assay",1440 nM
same,IC50,"134 cancer cell lines; Homo sapiens, NCI-H1650, read-out: IC50 in cell proliferation assay",> 31600 nM
same,IC50,"134 cancer cell lines; Homo sapiens, NCI-H1975, read-out: IC50 in cell proliferation assay",2170 nM
same,IC50,"134 cancer cell lines; Homo sapiens, NCI-H2228, read-out: IC50 in cell proliferation assay",4140 nM
same,IC50,"134 cancer cell lines; Homo sapiens, OVCAR-3, read-out: IC50 in cell proliferation assay",2000 nM
same,IC50,"134 cancer cell lines; Homo sapiens, PFSK-1, read-out: IC50 in cell proliferation assay",8000 nM
same,IC50,"134 cancer cell lines; Homo sapiens, RL95-2, read-out: IC50 in cell proliferation assay",1130 nM
same,IC50,"134 cancer cell lines; Homo sapiens, RPMI-7951, read-out: IC50 in cell proliferation assay",6450 nM
same,IC50,"134 cancer cell lines; Homo sapiens, RS4-11, read-out: IC50 in cell proliferation assay",1170 nM
same,IC50,"134 cancer cell lines; Homo sapiens, Rec1, read-out: IC50 in cell proliferation assay",5270 nM
same,IC50,"134 cancer cell lines; Homo sapiens, SHP77, read-out: IC50 in cell proliferation assay",> 31600 nM
same,IC50,"134 cancer cell lines; Homo sapiens, SK-BR-3, read-out: IC50 in cell proliferation assay",2040 nM
same,IC50,"134 cancer cell lines; Homo sapiens, SK-N-AS, read-out: IC50 in cell proliferation assay",2370 nM
same,IC50,"134 cancer cell lines; Homo sapiens, SK-N-FI, read-out: IC50 in cell proliferation assay",2920 nM
same,IC50,"134 cancer cell lines; Homo sapiens, SK-N-MC, read-out: IC50 in cell proliferation assay",4760 nM
same,IC50,"134 cancer cell lines; Homo sapiens, SK-N-SH, read-out: IC50 in cell proliferation assay",3610 nM
same,IC50,"134 cancer cell lines; Homo sapiens, SNU-5, read-out: IC50 in cell proliferation assay",30200 nM
same,IC50,"134 cancer cell lines; Homo sapiens, SNU-16, read-out: IC50 in cell proliferation assay",773 nM
same,IC50,"134 cancer cell lines; Homo sapiens, SNU-C2B, read-out: IC50 in cell proliferation assay",15700 nM
same,IC50,"134 cancer cell lines; Homo sapiens, SU-DHL-1, read-out: IC50 in cell proliferation assay",2780 nM
same,IC50,"134 cancer cell lines; Homo sapiens, SU-DHL-6, read-out: IC50 in cell proliferation assay",8190 nM
same,IC50,"134 cancer cell lines; Homo sapiens, SUP-T1, read-out: IC50 in cell proliferation assay",2460 nM
same,IC50,"134 cancer cell lines; Homo sapiens, SW48, read-out: IC50 in cell proliferation assay",2840 nM
same,IC50,"134 cancer cell lines; Homo sapiens, SW480, read-out: IC50 in cell proliferation assay",3600 nM
same,IC50,"134 cancer cell lines; Homo sapiens, SW626, read-out: IC50 in cell proliferation assay",3910 nM
same,IC50,"134 cancer cell lines; Homo sapiens, SW780, read-out: IC50 in cell proliferation assay",30700 nM
same,IC50,"134 cancer cell lines; Homo sapiens, SW837, read-out: IC50 in cell proliferation assay",7360 nM
same,IC50,"134 cancer cell lines; Homo sapiens, SW872, read-out: IC50 in cell proliferation assay",2460 nM
same,IC50,"134 cancer cell lines; Homo sapiens, SW900, read-out: IC50 in cell proliferation assay",9130 nM
same,IC50,"134 cancer cell lines; Homo sapiens, SW948, read-out: IC50 in cell proliferation assay",1680 nM
same,IC50,"134 cancer cell lines; Homo sapiens, SW982, read-out: IC50 in cell proliferation assay",2260 nM
same,IC50,"134 cancer cell lines; Homo sapiens, SW-620, read-out: IC50 in cell proliferation assay",1900 nM
same,IC50,"134 cancer cell lines; Homo sapiens, T98G, read-out: IC50 in cell proliferation assay",3470 nM
same,IC50,"134 cancer cell lines; Homo sapiens, TCC-SUP, read-out: IC50 in cell proliferation assay",1290 nM
same,IC50,"134 cancer cell lines; Homo sapiens, THP-1, read-out: IC50 in cell proliferation assay",981 nM
same,IC50,"134 cancer cell lines; Homo sapiens, U2OS, read-out: IC50 in cell proliferation assay",3380 nM
same,IC50,"134 cancer cell lines; Homo sapiens, U-87 MG, read-out: IC50 in cell proliferation assay",> 31600 nM
same,IC50,"134 cancer cell lines; Homo sapiens, U-118-MG, read-out: IC50 in cell proliferation assay",4220 nM
same,IC50,"134 cancer cell lines; Homo sapiens, UMUC3, read-out: IC50 in cell proliferation assay",2890 nM
same,IC50,"134 cancer cell lines; Hs766T, read-out: IC50 in cell proliferation assay",4700 nM
same,IC50,"134 cancer cell lines; L-82, read-out: IC50 in cell proliferation assay",3030 nM
same,IC50,"134 cancer cell lines; Rh30, read-out: IC50 in cell proliferation assay",3000 nM
